Experimental data as given in patent publication US11566057B2, “Long-acting co-agonists of the glucagon and GLP-1 receptors” (Merck Sharp & Dohme Corp., priority 2017, dated 2023).
Where two headings read alike, the source gives them in different places. Numbered stars: 1 amine (or outer) side, 2 acyl side, 3 side chain; on linkers, the order of the positions; unused ones are H or OH. Square brackets hold non-standard residues; d marks the D form. Side chains are listed from the residue outwards. Peptide text beside a SMILES is read from it. * marks the point of attachment. C20 diacid = O=C(O)CCCCCCCCCCCCCCCCCCC(=O)*; Phe(4-CH2NH2) = NCc1ccc(C[C@H](N)C(=O)O)cc1; C18 diacid = O=C(O)CCCCCCCCCCCCCCCCC(=O)*; γGlu = O=C(O)[C@H](CCC(=O)[*:2])N[*:1]; Met(O2) = CS(=O)(=O)CC[C@H](N)C(=O)O; AEEA = NCCOCCOCC(=O)O; Aib = CC(C)(N)C(=O)O

Experiments:
[1] = biological target: T1, human GCGR (Homo sapiens, UniProt P47871); assay: cAMP activity assay at the Glucagon receptor (GCGR); format: cell-based; settings: for hGCGR/hGLP1R (hTone): ratio of GCGR EC50 to GLP1R EC50
T1 construct: expressed in transfected cells; growth medium holds Blasticidin and Hygromycin
Method in brief: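 Peptides serially diluted from DMSO (10 points) and added to frozen-stock cells bearing human GLP1R (10,000 cells/well) or GCGR (30,000 cells/well), 1 h at RT, dark. EC50 by four-parameter logistic fit of HitHunter cAMPXS luminescence, read following overnight RT incubation.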

[2] = biological target: T2, human GLP1R (Homo sapiens, UniProt P43220); assay: cAMP activity assay at the GLP-1 receptor (GLP1R); format: cell-based
T2 construct: expressed in transfected cells; growth medium holds Blasticidin and Hygromycin
Method: Activity of the peptides at the Glucagon receptor (GCGR) and GLP-1 receptor (GLP1R) was measured in a cAMP activity assay.
GCG/GLP-1 receptor co-agonist peptides were dissolved in 100% DMSO (dimethyl sulfoxide) and serially diluted to generate 10 point titrations. The peptide solutions were then transferred into 384-well assay plates (150 nL/well). Assay ready frozen cells expressing human GLP1R or human GCGR were suspended in growth media consisting of DMEM medium (GIBCO®), 10% FBS (GIBCO®), 1×NEAA(GIBCO®), 1×P/S (GIBCO®), 10 ug/mL Blasticidin (GIBCO®) and 200 μg/mL Hygromycin (GIBCO®). […] The cell suspensions (15 μL) were then added to the assay plates containing the peptide solutions (30,000 cells/well for human GCGR; 10,000 cells/well for human GLP1R). The cells were incubated for 1 hour at room temperature in the dark. Production of cAMP was determined using HitHunter™ cAMPXS kits (DiscoverX) following manufacturer protocol. The plates were incubated for overnight at room temperature in the dark. Luminescence was measured using an EnVision Multilabel plate reader (Perkin Elmer). Native GLP-1 and Glucagon (Bachem) are used as control peptides. EC50 values were calculated using uses a 4 parameter logistic fit based on the Levenberg-Marquardt algorithm.

[3] = cells expressing human GCGR, cAMP production, buffer with or without 20% human serum (not stated which), read-out: GCGR EC50 human
[4] = summary statement: EC50 at each of the glucagon and GLP-1 receptors, read-out: EC50 at the glucagon receptor
[5] = summary statement: EC50 at each of the glucagon and GLP-1 receptors, read-out: EC50 at the GLP-1 receptor
[6] = cells expressing human GLP1R, cAMP production, buffer with or without 20% human serum (not stated which), read-out: GLP1R EC50 human

T1 sequence (P47871 26-477): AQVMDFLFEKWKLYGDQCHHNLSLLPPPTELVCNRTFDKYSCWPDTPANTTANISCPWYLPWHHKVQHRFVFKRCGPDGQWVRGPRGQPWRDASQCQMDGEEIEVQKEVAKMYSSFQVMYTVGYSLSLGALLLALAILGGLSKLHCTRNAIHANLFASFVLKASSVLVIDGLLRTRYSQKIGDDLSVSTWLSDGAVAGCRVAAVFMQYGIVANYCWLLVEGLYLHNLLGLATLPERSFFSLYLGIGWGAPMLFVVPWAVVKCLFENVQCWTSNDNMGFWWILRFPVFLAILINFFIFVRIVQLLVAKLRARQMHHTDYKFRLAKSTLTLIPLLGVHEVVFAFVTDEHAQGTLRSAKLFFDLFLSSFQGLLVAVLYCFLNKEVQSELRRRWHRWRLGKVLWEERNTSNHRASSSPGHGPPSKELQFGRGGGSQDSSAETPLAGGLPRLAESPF
T2 sequence (P43220 24-463): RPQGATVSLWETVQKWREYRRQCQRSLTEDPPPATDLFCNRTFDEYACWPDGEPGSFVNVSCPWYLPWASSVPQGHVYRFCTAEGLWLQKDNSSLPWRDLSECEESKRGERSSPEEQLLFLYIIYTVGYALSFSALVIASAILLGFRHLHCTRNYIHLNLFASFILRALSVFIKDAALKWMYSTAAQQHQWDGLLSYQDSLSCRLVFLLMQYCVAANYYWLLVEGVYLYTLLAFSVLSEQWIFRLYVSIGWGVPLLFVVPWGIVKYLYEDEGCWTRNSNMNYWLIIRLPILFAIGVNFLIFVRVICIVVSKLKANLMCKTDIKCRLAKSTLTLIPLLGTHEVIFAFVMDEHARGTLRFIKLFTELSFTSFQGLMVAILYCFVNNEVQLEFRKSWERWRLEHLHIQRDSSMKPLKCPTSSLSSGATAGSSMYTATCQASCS

Compound: CC(C)C[C@H](NC(=O)[C@H](Cc1c[nH]c2ccccc12)NC(=O)[C@H](CCCCNC(=O)COCCOCCNC(=O)COCCOCCNC(=O)CC[C@H](NC(=O)CCCCCCCCCCCCCCCCCCC(=O)O)C(=O)O)NC(=O)[C@@H](NC(=O)[C@H](Cc1ccccc1)NC(=O)[C@H](CC(=O)O)NC(=O)[C@H](CCC(N)=O)NC(=O)[C@H](C)NC(=O)[C@H](C)NC(=O)[C@H](CCCNC(=N)N)NC(=O)C(C)(C)NC(=O)[C@H](CC(=O)O)NC(=O)[C@H](CC(C)C)NC(=O)[C@H](Cc1ccc(O)cc1)NC(=O)[C@H](CCCCN)NC(=O)[C@H](CO)NC(=O)[C@H](Cc1ccc(O)cc1)NC(=O)[C@H](CC(=O)O)NC(=O)[C@H](CO)NC(=O)[C@@H](NC(=O)[C@H](Cc1ccccc1)NC(=O)[C@@H](NC(=O)CNC(=O)[C@H](CCC(N)=O)NC(=O)C(C)(C)NC(=O)[C@@H](N)Cc1c[nH]cn1)[C@@H](C)O)[C@@H](C)O)C(C)C)C(=O)N[C@@H](CCS(C)(=O)=O)C(=O)N[C@@H](CC(=O)O)C(=O)N[C@H](C(N)=O)[C@@H](C)O [TP576] (H-H[Aib]QGTFTSDYSKYLD[Aib]RAAQDFVK([AEEA-AEEA-γGlu-C20 diacid])WL[Met(O2)]DT-NH2; N-terminus assumed)
- EC50 [1, 3]: 1.45 nM
- hGCGR/hGLP1R (hTone) [1]: 0.8
- EC50 [1, 4]: < 5 nM
- EC50 [2, 5]: < 5 nM

Compound: CC(C)C[C@H](NC(=O)[C@H](Cc1ccc(O)cc1)NC(=O)[C@H](CCCCN)NC(=O)[C@H](CO)NC(=O)[C@H](Cc1ccc(O)cc1)NC(=O)[C@H](CC(=O)O)NC(=O)[C@H](CO)NC(=O)[C@@H](NC(=O)[C@H](Cc1ccccc1)NC(=O)[C@@H](NC(=O)CNC(=O)[C@H](CCC(N)=O)NC(=O)C(C)(C)NC(=O)[C@@H](N)Cc1c[nH]cn1)[C@@H](C)O)[C@@H](C)O)C(=O)N[C@@H](CC(=O)O)C(=O)N[C@@H](CO)C(=O)N[C@@H](CCCNC(=N)N)C(=O)N[C@@H](C)C(=O)N[C@@H](C)C(=O)N[C@@H](CCCCNC(=O)COCCOCCNC(=O)COCCOCCNC(=O)CC[C@H](NC(=O)CCCCCCCCCCCCCCCCCCC(=O)O)C(=O)O)C(=O)N[C@@H](CC(=O)O)C(=O)N[C@@H](Cc1ccccc1)C(=O)N[C@H](C(=O)N[C@@H](CCC(N)=O)C(=O)N[C@@H](Cc1c[nH]c2ccccc12)C(=O)N[C@@H](CC(C)C)C(=O)N[C@@H](CCS(C)(=O)=O)C(=O)N[C@@H](CC(=O)O)C(=O)N[C@H](C(N)=O)[C@@H](C)O)C(C)C [TP577] (H-H[Aib]QGTFTSDYSKYLDSRAAK([AEEA-AEEA-γGlu-C20 diacid])DFVQWL[Met(O2)]DT-NH2; N-terminus assumed)
- EC50 [1, 3]: 4.54 nM
- hGCGR/hGLP1R (hTone) [1]: 2.7
- EC50 [1, 4]: < 5 nM
- EC50 [2, 5]: < 5 nM

Compound: CC(C)C[C@H](NC(=O)[C@H](Cc1c[nH]c2ccccc12)NC(=O)[C@H](CCC(N)=O)NC(=O)[C@@H](NC(=O)[C@H](Cc1ccccc1)NC(=O)[C@H](CC(=O)O)NC(=O)[C@H](CCCCNC(=O)COCCOCCNC(=O)COCCOCCNC(=O)CC[C@H](NC(=O)CCCCCCCCCCCCCCCCCCC(=O)O)C(=O)O)NC(=O)[C@H](C)NC(=O)[C@H](C)NC(=O)[C@H](CCCNC(=N)N)NC(=O)C(C)(C)NC(=O)[C@H](CC(=O)O)NC(=O)[C@H](CC(C)C)NC(=O)[C@H](Cc1ccc(O)cc1)NC(=O)[C@H](CCCCN)NC(=O)[C@H](CO)NC(=O)[C@H](Cc1ccc(O)cc1)NC(=O)[C@H](CC(=O)O)NC(=O)[C@H](CO)NC(=O)[C@@H](NC(=O)[C@H](Cc1ccccc1)NC(=O)[C@@H](NC(=O)CNC(=O)[C@H](CCC(N)=O)NC(=O)[C@@H](CO)NC(=O)[C@@H](N)Cc1c[nH]cn1)[C@@H](C)O)[C@@H](C)O)C(C)C)C(=O)N[C@@H](CCS(C)(=O)=O)C(=O)N[C@@H](CC(=O)O)C(=O)N[C@H](C(N)=O)[C@@H](C)O [TP578]
- EC50 [1, 4]: < 5 nM
- EC50 [2, 6]: 4.95 nM
- EC50 [2, 5]: < 5 nM

Compound: CC(C)C[C@H](NC(=O)[C@H](Cc1ccc(O)cc1)NC(=O)[C@H](CCCCN)NC(=O)[C@H](CO)NC(=O)[C@H](Cc1ccc(CNC(=O)COCCOCCNC(=O)COCCOCCNC(=O)CC[C@H](NC(=O)CCCCCCCCCCCCCCCCCCC(=O)O)C(=O)O)cc1)NC(=O)[C@H](CC(=O)O)NC(=O)[C@H](CO)NC(=O)[C@@H](NC(=O)[C@H](Cc1ccccc1)NC(=O)[C@@H](NC(=O)CNC(=O)[C@H](CCC(N)=O)NC(=O)C(C)(C)NC(=O)[C@@H](N)Cc1c[nH]cn1)[C@@H](C)O)[C@@H](C)O)C(=O)N[C@@H](CC(=O)O)C(=O)N[C@@H](C)C(=O)N[C@@H](CCCNC(=N)N)C(=O)N[C@@H](C)C(=O)N[C@@H](C)C(=O)N[C@@H](CCC(N)=O)C(=O)N[C@@H](CC(=O)O)C(=O)N[C@@H](Cc1ccccc1)C(=O)N[C@H](C(=O)N[C@@H](CCC(N)=O)C(=O)N[C@@H](Cc1c[nH]c2ccccc12)C(=O)N[C@@H](CC(C)C)C(=O)N[C@@H](CCS(C)(=O)=O)C(=O)N[C@@H](CC(=O)O)C(=O)N[C@H](C(N)=O)[C@@H](C)O)C(C)C [TP580] (H-H[Aib]QGTFTSD[Phe(4-CH2NH2)]([AEEA-AEEA-γGlu-C20 diacid])SKYLDARAAQDFVQWL[Met(O2)]DT-NH2; N-terminus assumed)
- EC50 [1, 3]: 1.09 nM
- hGCGR/hGLP1R (hTone) [1]: 2.4
- EC50 [1, 4]: < 5 nM
- EC50 [2, 5]: < 5 nM

Compound: CC(C)C[C@H](NC(=O)[C@H](Cc1ccc(O)cc1)NC(=O)[C@H](CCCCN)NC(=O)[C@H](CO)NC(=O)[C@H](Cc1ccc(O)cc1)NC(=O)[C@H](CC(=O)O)NC(=O)[C@H](CO)NC(=O)[C@@H](NC(=O)[C@H](Cc1ccccc1)NC(=O)[C@@H](NC(=O)CNC(=O)[C@H](CCC(N)=O)NC(=O)C(C)(C)NC(=O)[C@@H](N)Cc1c[nH]cn1)[C@@H](C)O)[C@@H](C)O)C(=O)N[C@@H](CC(=O)O)C(=O)N[C@@H](C)C(=O)N[C@@H](CCCNC(=N)N)C(=O)N[C@@H](C)C(=O)N[C@@H](C)C(=O)N[C@@H](CCC(N)=O)C(=O)N[C@@H](CC(=O)O)C(=O)N[C@@H](Cc1ccccc1)C(=O)N[C@H](C(=O)N[C@@H](Cc1ccc(CNC(=O)COCCOCCNC(=O)COCCOCCNC(=O)CC[C@H](NC(=O)CCCCCCCCCCCCCCCCCCC(=O)O)C(=O)O)cc1)C(=O)N[C@@H](Cc1c[nH]c2ccccc12)C(=O)N[C@@H](CC(C)C)C(=O)N[C@@H](CC(C)C)C(=O)N[C@@H](CC(=O)O)C(=O)N[C@H](C(N)=O)[C@@H](C)O)C(C)C [TP584] (H-H[Aib]QGTFTSDYSKYLDARAAQDFV[Phe(4-CH2NH2)]([AEEA-AEEA-γGlu-C20 diacid])WLLDT-NH2)
- hGCGR/hGLP1R (hTone) [1]: 4.6
- EC50 [1, 4]: < 5 nM
- EC50 [2, 5]: < 5 nM

Compound: CC(C)C[C@H](NC(=O)[C@H](Cc1ccc(O)cc1)NC(=O)[C@H](CCCCN)NC(=O)[C@H](CO)NC(=O)[C@H](Cc1ccc(O)cc1)NC(=O)[C@H](CC(=O)O)NC(=O)[C@H](CO)NC(=O)[C@@H](NC(=O)[C@H](Cc1ccccc1)NC(=O)[C@@H](NC(=O)CNC(=O)[C@H](CCC(N)=O)NC(=O)C(C)(C)NC(=O)[C@@H](N)Cc1c[nH]cn1)[C@@H](C)O)[C@@H](C)O)C(=O)N[C@@H](CC(=O)O)C(=O)N[C@@H](CCC(=O)O)C(=O)N[C@@H](CCCNC(=N)N)C(=O)N[C@@H](C)C(=O)N[C@@H](C)C(=O)N[C@@H](Cc1ccc(CNC(=O)COCCOCCNC(=O)COCCOCCNC(=O)CC[C@H](NC(=O)CCCCCCCCCCCCCCCCCCC(=O)O)C(=O)O)cc1)C(=O)N[C@@H](CC(=O)O)C(=O)N[C@@H](Cc1ccccc1)C(=O)N[C@H](C(=O)N[C@@H](CCC(N)=O)C(=O)N[C@@H](Cc1c[nH]c2ccccc12)C(=O)N[C@@H](CC(C)C)C(=O)N[C@@H](CC(C)C)C(=O)N[C@@H](CCCCN)C(=O)N[C@H](C(N)=O)[C@@H](C)O)C(C)C [TP586] (H-H[Aib]QGTFTSDYSKYLDERAA[Phe(4-CH2NH2)]([AEEA-AEEA-γGlu-C20 diacid])DFVQWLLKT-NH2; N-terminus assumed)
- EC50 [1, 3]: 4.95 nM
- hGCGR/hGLP1R (hTone) [1]: >4.0
- EC50 [1, 4]: < 5 nM
- EC50 [2, 5]: < 5 nM

Compound: CC(C)C[C@H](NC(=O)[C@H](Cc1ccc(O)cc1)NC(=O)[C@H](CCCCN)NC(=O)[C@H](CO)NC(=O)[C@H](Cc1ccc(O)cc1)NC(=O)[C@H](CC(=O)O)NC(=O)[C@H](CO)NC(=O)[C@@H](NC(=O)[C@H](Cc1ccccc1)NC(=O)[C@@H](NC(=O)CNC(=O)[C@H](CCC(N)=O)NC(=O)C(C)(C)NC(=O)[C@@H](N)Cc1c[nH]cn1)[C@@H](C)O)[C@@H](C)O)C(=O)N[C@@H](CC(=O)O)C(=O)N[C@@H](CCC(=O)O)C(=O)N[C@@H](CCCNC(=N)N)C(=O)N[C@@H](C)C(=O)N[C@@H](C)C(=O)N[C@@H](Cc1ccc(CNC(=O)COCCOCCNC(=O)COCCOCCNC(=O)CC[C@H](NC(=O)CCCCCCCCCCCCCCCCC(=O)O)C(=O)O)cc1)C(=O)N[C@@H](CC(=O)O)C(=O)N[C@@H](Cc1ccccc1)C(=O)N[C@H](C(=O)N[C@@H](CCC(N)=O)C(=O)N[C@@H](Cc1c[nH]c2ccccc12)C(=O)N[C@@H](CC(C)C)C(=O)N[C@@H](CC(C)C)C(=O)N[C@@H](CCCCN)C(=O)N[C@H](C(N)=O)[C@@H](C)O)C(C)C [TP587] (H-H[Aib]QGTFTSDYSKYLDERAA[Phe(4-CH2NH2)]([AEEA-AEEA-γGlu-C18 diacid])DFVQWLLKT-NH2; N-terminus assumed)
- hGCGR/hGLP1R (hTone) [1]: >4.1
- EC50 [1, 4]: < 5 nM
- EC50 [2, 6]: 0.41 nM
- EC50 [2, 5]: < 5 nM
